Assay results taken from patent US20050256034A1, “Dioxolane analogs for improved inter-cellular delivery” (priority 2000, published 2005).

Legend:
Format in all cases: cell-based
CEM cells = test: CellTiter 96 cell proliferation assay, 48 h exposure; conditions: Homo sapiens, CCRF-CEM, 48 h, read-out: Chemosensitivity, 50% of the dose response curve (EC50), CEM + NBMPR (100 nM), 48 h exposure, mean ± SD
Procedure: The chemosensitivity of suspension cells lines (e.g., CEM or CEM-derivatives) is assessed using the CellTiter 96 ? proliferation assay. […] Chemosensitivity is expressed as 50% (ECso) of the dose response curve determined, e.g., using GraphPad Prism 2.01 (GraphPad Software, San Diego, Calif.). Adherent cell lines (e.g., DU145 or DU145^R) are seeded (˜10^5 cells) in triplicate dishes, 24 h before drug exposure. Growth inhibition is determined by trypsinization and counting cells electronically.

recombinant hCNT2 = biological target: T1, recombinant hCNT2 (Homo sapiens, UniProt O43868); test: Uptake by recombinant transporter in transiently transfected HeLa cells; conditions: 10 μM, 100 μM dilazep
T1 construct: expressed in transfected cells; host or cells: HeLa cells, transient transfection with pcDNA3-hCNT2 (subcloned from pMH15)
T1 sequence (O43868 1-658): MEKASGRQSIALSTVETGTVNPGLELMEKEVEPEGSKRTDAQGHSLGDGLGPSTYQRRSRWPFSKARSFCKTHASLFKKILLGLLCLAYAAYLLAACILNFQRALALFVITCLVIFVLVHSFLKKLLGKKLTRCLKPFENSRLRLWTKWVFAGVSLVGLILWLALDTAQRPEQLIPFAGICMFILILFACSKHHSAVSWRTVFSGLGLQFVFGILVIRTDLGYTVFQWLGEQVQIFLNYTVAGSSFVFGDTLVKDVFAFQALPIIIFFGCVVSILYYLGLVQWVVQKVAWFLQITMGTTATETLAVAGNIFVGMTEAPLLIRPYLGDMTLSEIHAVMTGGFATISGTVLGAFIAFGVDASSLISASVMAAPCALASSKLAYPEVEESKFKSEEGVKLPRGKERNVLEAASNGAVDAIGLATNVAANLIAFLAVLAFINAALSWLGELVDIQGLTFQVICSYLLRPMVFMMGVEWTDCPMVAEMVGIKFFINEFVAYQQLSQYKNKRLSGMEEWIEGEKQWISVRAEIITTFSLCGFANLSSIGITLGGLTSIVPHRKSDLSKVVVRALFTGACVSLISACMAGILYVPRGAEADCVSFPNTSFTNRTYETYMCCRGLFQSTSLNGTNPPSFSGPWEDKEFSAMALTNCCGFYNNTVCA
Procedure: (§1) Transport assays were conducted in the presence of the equilibrative transport inhibitor, 100 μM dilazep and either in the presence ( ? ) or absence (▴) of […].sodium, and compared to HeLa cells transiently transfected with the empty vector control plasmic (▾)
(§2) Expression plasmids encoding recombinant hCNT1 and hCNT2 are prepared using conventional methods. […] The expression vectors are separately introduced into actively proliferating HeLa cells, following conventional methods. See, e.g., Fang et al (1996).
(§3) Recombinant hCNT1 and hCNT2 were separately introduced into HeLa cells by transient transfection of pcDNA3 plasmids containing the coding sequences of the relevant nucleoside transporter protein. […] Uptake of 10 μM [:H]troxacitabine was not mediated either by hCNT1 or by hCNT2.

recombinant hCNT1 = biological target: T2, recombinant hCNT1 (Homo sapiens, UniProt O00337); test: as above; conditions: 10 μM, 100 μM dilazep
T2 construct: expressed in transfected cells; host or cells: HeLa cells, transient transfection with pcDNA3-hCNT1 (subcloned from pMHK2)
T2 sequence (O00337 1-649): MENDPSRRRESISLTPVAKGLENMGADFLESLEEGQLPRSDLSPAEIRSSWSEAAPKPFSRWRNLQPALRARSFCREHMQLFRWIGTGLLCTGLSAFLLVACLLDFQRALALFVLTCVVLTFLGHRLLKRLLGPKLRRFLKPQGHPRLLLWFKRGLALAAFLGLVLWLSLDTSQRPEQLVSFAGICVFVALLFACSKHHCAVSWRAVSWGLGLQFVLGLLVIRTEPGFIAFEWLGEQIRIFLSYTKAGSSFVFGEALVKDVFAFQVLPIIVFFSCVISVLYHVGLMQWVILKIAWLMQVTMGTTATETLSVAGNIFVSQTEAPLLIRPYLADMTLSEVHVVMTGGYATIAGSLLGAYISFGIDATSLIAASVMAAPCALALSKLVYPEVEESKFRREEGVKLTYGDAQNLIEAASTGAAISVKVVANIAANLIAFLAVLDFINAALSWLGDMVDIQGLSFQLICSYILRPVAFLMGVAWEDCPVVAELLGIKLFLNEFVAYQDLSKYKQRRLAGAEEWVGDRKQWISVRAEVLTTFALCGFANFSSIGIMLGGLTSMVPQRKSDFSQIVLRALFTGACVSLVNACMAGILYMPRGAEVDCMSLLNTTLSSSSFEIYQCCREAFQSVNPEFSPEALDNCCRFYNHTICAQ
Procedure: as §1, §2, §3

[1] = biological target: T3, hENT1 (es) in DU145 cells (Homo sapiens, UniProt Q99808); test: Cellular uptake assay of 3H-labelled nucleoside, NT inhibitor and self-competition
T3 construct: functional es-mediated transport (hENT1) in DU145 cells; endogenous in cells; host or cells: DU145 cells
T3 sequence (Q99808 1-456): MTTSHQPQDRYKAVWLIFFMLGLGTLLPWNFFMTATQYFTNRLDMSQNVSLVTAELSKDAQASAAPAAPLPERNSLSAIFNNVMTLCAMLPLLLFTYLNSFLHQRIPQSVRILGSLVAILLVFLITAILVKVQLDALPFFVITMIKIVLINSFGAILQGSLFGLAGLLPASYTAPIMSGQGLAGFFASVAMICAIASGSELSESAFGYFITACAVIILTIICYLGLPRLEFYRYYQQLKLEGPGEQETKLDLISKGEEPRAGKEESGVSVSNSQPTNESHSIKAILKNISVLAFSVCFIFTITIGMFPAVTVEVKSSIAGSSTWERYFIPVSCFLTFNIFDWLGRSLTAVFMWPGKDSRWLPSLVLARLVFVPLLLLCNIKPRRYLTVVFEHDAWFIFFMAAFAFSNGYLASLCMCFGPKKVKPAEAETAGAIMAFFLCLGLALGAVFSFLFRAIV
Procedure: FIG. 2 Comparative uptake of 10 μM [^3H]troxacitabine (0-240 min) (Panel B) and 10 μM [^3H]D-uridine (0-6 min) (Panel A) in the presence (▴) or absence ( ? ) of the hENT1 inhibitor, 100 nM NBMPP, in DU145 cells.
Cancer Res., 56: 4187-4191.
(FIG. 2A). In contrast, low levels of [^3H]troxacitabine were taken up and uptake was not affected by the presence of NBMPR (FIG. 2B).
DU145 cells: This experiment is designed to show whether [^3H]L-troxacitabine (10 μM) is taken up by DU145 cells and if the rate of uptake is affected by the addition of high concentrations (1 mM) of non-radioactive troxacitabine.

In the case of Nc1ccn([C@@H]2CO[C@H](CO)O2)c(=O)n1 [Troxacitabine, troxacitabine], the EC50 (CEM cells) is reported as 210 ± 19 nM, the “uptake mediated by hCNT2” value (recombinant hCNT2) is reported as “not mediated” and the “uptake mediated by hCNT1” value (recombinant hCNT1) is reported as “not mediated”. The “effect of non-radioactive troxacitabine (1 mM) on uptake” value ([1]; 10 μM labelled) was “no significant effect”, the “effect of NBMPR on uptake” value ([1]; 10 μM, 0-240 min, 100 nM NBMPR) was “not affected” and the rate of uptake ([1]; 10 μM, short (0-30 s) and prolonged exposures (0-4 h)) was “very slow”.
